The source of these data is patent US9388382B2, “Isolation of CD14 negative, CD45 positive and CD117 positive embryonic-like stem cells free of monocytes from human umbilical cord blood mononuclear cells” (THE BOARD OF TRUSTEES OF THE UNIVERSITY OF ILLINOIS, priority 2005, dated 2016).

The subject of experiment [1] is ConA-stimulated lymphocytes of diabetic NOD mouse. Put plainly: ConA-stimulated autoimmune lymphocyte proliferation in coculture with differentiated embryonic-like stem cells. Format: cell-based. The note with it: MGTA 10 μM, p<0.01. The protocol:
The specific carboxypeptidase inhibitor, carboxypeptidase inhibitor 2-mercaptomethyl-3-guanidinoethylthiopropanoic acid (MGTA, 10 μM) was applied to block carboxypeptidase. First, embryonic-like stem cells were differentiated by treatment with 10 nM Exendin4+10 ng/ml GM-CSF+25 mM glucose in 7% FBS-DMEM culture medium for 3-5 days. Second, autoimmune lymphocytes were isolated form the diabetic NOD mouse and then cocultured with these embryonic-like stem cells in the presence MGTA. The mouse lymphocyte mitogen concanavalin A (ConA) was used to stimulate the proliferation of lymphocytes.

Experiment [2] deals with PHA- or IL-2-stimulated allogeneic lymphocytes. The experiment can be described thus: Mitogen-stimulated lymphocyte proliferation in coculture with CB-SC (cell count). Format: cell-based, human. The note with it: 200 μM/day L-NNA for 3 days, p<0.05. The procedure: (§1) For PHA stimulation, lymphocyte suspensions (1×10^6 cells/ml) with or without PHA (10 μg/ml, Sigma) were seeded onto CB-SC cell cultures in regular culture medium. PHA-stimulated lymphocytes without CB-SC served as positive control; lymphocytes cultured only in regular medium served as negative control. Lymphocytes cocultured with CB-SC without PHA stimulation served as an additional negative control. For IL-2 stimulation, IL-2 (500 U/ml, eBioscience) was used. After 5-6 days, the suspended lymphocytes were collected for cell count and/or flow analysis.
Unfixed CB-SC from same cord blood units served as controls. Additionally, we employed transwell culture system with 0.4 μm size (Sigma) to plant lymphocytes.
In experiments where N^ω-nitro-L-arginine (L-NNA, Sigma) was used to inhibit NO synthase, the drug (200 μM L-NNA) was added 1 h before PHA stimulation and then administrated 200 μM/day for additional two days. [Ziche, M., L. Morbidelli, E. Masini, S. Amerini, H. J. Granger, C. A. Maggi, P. Geppetti, and F. Ledda. 1994. Nitric oxide mediates angiogenesis in vivo and endothelial cell growth and migration in vitro promoted by substance P. J Clin Invest. 94:2036-2044].

The subject of experiment [3] is human peripheral blood lymphocyte subsets. The experiment can be described thus: Coculture of CB-SC with lymphocytes, flow analysis of T cell subsets. Format: cell-based. The conditions noted are these: PHA stimulation without CB-SC, p<0.05. From the text: CB-SC adhere very tightly to the culture dishes and display large rounded morphology, it is easy to distinguish between CB-SC and lymphocytes. CB-SC growing at 80% confluence were used for coculture with allogeneic lymphocytes. Allogeneic lymphocytes were collected from buffy coats of healthy donors (Life-Source Blood Services, Glenview, Ill.) after Ficoll-Hypaque separation followed by removing all attached cells and then cocultured with CB-SC at the ratio (1:10) [Zhao, Y., H. Wang, and T. Mazzone. 2006. Identification of stem cells from human umbilical cord blood with embryonic and hematopoietic characteristics. Exp Cell Res. 2006, 312: 2454-2464. DOI: 10.1016/j.yexcr.2006.04.008. April 26; (Epub ahead of print)] of CB-SC.
For PHA stimulation, lymphocyte suspensions (1×10^6 cells/ml) with or without PHA (10 μg/ml, Sigma) were seeded onto CB-SC cell cultures in regular culture medium. PHA-stimulated lymphocytes without CB-SC served as positive control; lymphocytes cultured only in regular medium served as negative control. Lymphocytes cocultured with CB-SC without PHA stimulation served as an additional negative control. For IL-2 stimulation, IL-2 (500 U/ml, eBioscience) was used. […]
Flow analysis was preformed as previously described [Zhao, Y., H. Wang, and T. Mazzone. […] After staining, cells were analyzed using a CyAn ADP (DakoCytomation). […]

Experiment [4] deals with intracytoplasmic IL-10 in allogeneic lymphocytes. The experiment can be described thus: Flow analysis of intracellular IL-10 production. Format: cell-based, human. The note with it: PHA-stimulated lymphocytes without CB-SC. The protocol: Allogeneic lymphocytes were cocultured with CB-SC at ratio 1:10 of CB-SC: lymphocytes, in the presence or absence of mitogen PHA. After coculture for 5-6 days, cells were permeabalized and evaluated for intracytoplasmic IL-10 level by flow cytometry. Isotype-matched mouse IgG1κ antibody served as negative control. Data represent one of at least three experiments with the similar results;
as §1
Flow analysis was preformed as previously described [Zhao, Y., H. Wang, and T. Mazzone. 2006. Identification of stem cells from human umbilical cord blood with embryonic and hematopoietic characteristics. Exp Cell Res. 2006, 312: 2454-2464. DOI: 10.1016/j.yexcr.2006.04.008. April 26; (Epub ahead of print)]. […] After staining, cells were analyzed using a CyAn ADP (DakoCytomation).

The test system of experiment [5] is DNA methyltransferase (DNMT) activity of lymphocytes. The experiment can be described thus: DNA methyltransferase activity of lymphocytes regulated by CB-SC-derived NO. Type of experiment: cell-based. The note with it: presence of iNOS inhibitor.

On to “2-mercaptomethyl-3-guanidinoethylthiopropanoic acid [MGTA]”, for which, in experiment [1], the “reversal of stem-cell inhibition of ConA-stimulated lymphocyte proliferation” value is given as “completely revert their inhibition”.
Take `NC(=NCCC[C@H](N)C(=O)O)N[N+](=O)[O-]` [L-NNA, N-omega-nitro-L-arginine]: the “lymphocyte cell number in presence vs absence of L-NNA” value in experiment [2] was “about 4 fold”.
Take phytohaemagglutinin [PHA]: in experiment [3], the “increase of CD8^+ and decrease of CD4^+ T cell percentage vs lymphocytes alone” value is listed as “more than 2 fold”. This molecule displayed an IL-10-positive cells in experiment [4] of 80%.
For `CC(=N)NCc1cccc(CN)c1` [1400 W], in experiment [5], the “blocking of regulation of lymphocyte DNMT activity by CB-SC-derived NO” value is “significantly blocked”.
